We go through 30 compounds from US9663496B2, “AMPK-activating heterocyclic compounds and methods for using the same” (Rigel Pharmaceuticals, Inc., priority 2010, dated 2017).

Each structure is given as a SMILES string. A value given as a limit tells only on which side of the number the result lay.

In the assay the target is AMPK. Briefly: AMPK activation, enzyme-linked immunosorbent assay. In kind it is biochemical. The following applies: EC50 for AMPK activation, ELISA. The essentials: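 Read-out: immunodetected kinase activation after compound exposure, run with commercial kit reagents.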
`N#Cc1ccc(CN2CCC(NC(=O)c3ccc(C(=O)N4CCC(C(=O)c5ccc(N6CCCC6)cc5)CC4)nc3)CC2)cc1` [Compound 377, N-(1-(4-cyanobenzyl)piperidin-4-yl)-6-(4-(4-(pyrrolidin-1-yl)benzoyl)piperidine-1-carbonyl)nicotinamide] had an EC50 of less than 500 nM.
In the case of `N#Cc1ccc(CN2CCC(NC(=O)c3cccc(C(=O)NC4CCN(Cc5ccc(C#N)cc5)CC4)n3)CC2)cc1` [Compound 86, N2,N6-bis(1-(4-cyanobenzyl)piperidin-4-yl)pyridine-2,6-dicarboxamide] it was 1000 to 5000 nM.
The same measure for `N#Cc1ccc(CN2CCC(NC(=O)c3ccc(C(=O)N4CCN(C(=O)c5ccc(C(=O)NC6CCN(Cc7ccc(C#N)cc7)CC6)nc5)CC4)cn3)CC2)cc1` [Compound 75, 5,5′-(piperazine-1,4-diylbis(oxomethylene)) bis(N-(1-(4-cyanobenzyl)piperidin-4-yl)picolinamide)]: 1000 to 5000 nM; for `COc1ccc(CN2CCC(NC(=O)c3ccc(C(=O)N4CCC(C(=O)c5ccc(F)cc5)CC4)cn3)CC2)cc1` [Compound 160, 5-(4-(4-fluorobenzoyl)piperidine-1-carbonyl)-N-(1-(4-methoxybenzyl)piperidin-4-yl)picolinamide]: less than 500 nM.
In the case of `CS(=O)(=O)c1ccc(OC2CCN(C(=O)c3ccc(C(=O)NC4CCN(Cc5ccc(C#N)cc5)CC4)nn3)CC2)cc1` [Compound 399, N-(1-(4-cyanobenzyl)piperidin-4-yl)-6-(4-(4-(methylsulfonyl)phenoxy)piperidine-1-carbonyl)pyridazine-3-carboxamide] it was less than 500 nM.
In turn, `COc1cccc(CN2CCC(NC(=O)c3ccc(C(=O)N4CCC(Oc5ccc(S(C)(=O)=O)cc5)CC4)nc3)CC2)c1` [Compound 238, N-(1-(3-methoxybenzyl)piperidin-4-yl)-6-(4-(4-(methylsulfonyl)phenoxy)piperidine-1-carbonyl)nicotinamide] returned an EC50 of 1000 to 5000 nM.
The same measure for `O=C(c1cccc(C(=O)N2CCN(Cc3ccc(F)cc3)CC2)n1)N1CCN(CCc2ccccc2)CC1` [Compound 93, (4-(4-fluorobenzyl)piperazin-1-yl)(6-(4-phenethylpiperazine-1-carbonyl)pyridin-2-yl)methanone]: greater than 10000 nM.
The same measure for `O=C(N[C@@H]1CCN(Cc2ccncc2)C[C@@H]1F)c1ccc(C(=O)N2CCN(Cc3ccc(F)cc3)CC2)cn1` (relative stereo) [Compound 104, N-(cis-3-fluoro-1-(pyridin-4-ylmethyl)piperidin-4-yl)-5-(4-(4-fluorobenzyl)piperazine-1-carbonyl)picolinamide]: less than 500 nM; for `COc1ccc(CN2CCC(NC(=O)c3ccc(C(=O)N4CCC(Oc5ccc(S(C)(=O)=O)cc5)CC4)nc3)CC2)cc1` [Compound 237, N-(1-(4-methoxybenzyl)piperidin-4-yl)-6-(4-(4-(methylsulfonyl)phenoxy)piperidine-1-carbonyl)nicotinamide]: 1000 to 5000 nM.
In the case of `N#Cc1ccc(CN2CC[C@H](NC(=O)c3ccc(C(=O)N4CCN(Cc5ccc(F)cc5)CC4)cn3)C2)cc1` [Compound 123, (S)-N-(1-(4-cyanobenzyl)pyrrolidin-3-yl)-5-(4-(4-fluorobenzyl)piperazine-1-carbonyl)picolinamide] it was less than 500 nM; in that of `N#Cc1ccc(Oc2ccc(NC(=O)c3ccc(C(=O)N4CCC(Oc5ccc(S(F)(F)(F)(F)F)cc5)CC4)nc3)cn2)cc1` [Compound 497, N-(6-(4-cyanophenoxy)pyridin-3-yl)-6-(4-(4-(pentafluorosulfanyl)phenoxy)piperidine-1-carbonyl)nicotinamide], less than 500 nM.
Compound `O=C(NC1CCN(Cc2ccc(F)cc2)CC1)c1ccc(C(=O)N2CCC(C(=O)c3ccc(N4CCCC4)cc3)CC2)nc1` [Compound 381, N-(1-(4-fluorobenzyl)piperidin-4-yl)-6-(4-(4-(pyrrolidin-1-yl)benzoyl)piperidine-1-carbonyl)nicotinamide] came in with an EC50 of less than 500 nM.
In the case of `CS(=O)(=O)c1ccc(C(=O)C2CCN(C(=O)c3ccc(C(=O)N[C@@H]4CCN(Cc5ccc(C#N)cc5)C[C@H]4F)nc3)CC2)cc1` (relative stereo) [Compound 252, N-((trans)-1-(4-cyanobenzyl)-3-fluoropiperidin-4-yl)-5-(4-(4-(methylsulfonyl)benzoyl)piperidine-1-carbonyl)picolinamide] it was 500 to 1000 nM; in that of `N#Cc1ccc(CN2CCC(NC(=O)c3ccc(C(=O)N4CCC(Oc5ccc(S(=O)(=O)C6CC6)cc5)CC4)nc3)CC2)cc1` [Compound 246, N-(1-(4-cyanobenzyl)piperidin-4-yl)-6-(4-(4-(cyclopropylsulfonyl)phenoxy)piperidine-1-carbonyl)nicotinamide], less than 500 nM; in that of `CS(=O)(=O)c1ccc(OC2CCN(C(=O)c3ccc(C(=O)N[C@@H]4CCN(Cc5ccc(OC(F)(F)F)cc5)C[C@H]4F)nc3)CC2)cc1` (relative stereo) [Compound 255, N-((trans)-3-fluoro-1-(4-(trifluoromethoxy)benzyl)piperidin-4-yl)-5-(4-(4-(methylsulfonyl)phenoxy)piperidine-1-carbonyl)picolinamide], less than 500 nM.
In the case of `COc1ccc(C(=O)C2CCN(c3ccc(C(=O)N4CCN(Cc5ccc(F)cc5)CC4)cn3)CC2)cc1` [Compound 189, (4-(4-fluorobenzyl)piperazin-1-yl)(6-(4-(4-methoxybenzoyl)piperidin-1-yl)pyridin-3-yl)methanone] it was 1000 to 5000 nM.
In the case of `COc1ccc(C(=O)C2CCN(C(=O)c3ccc(C(=O)NC4CCN(Cc5ccc(NC(=O)CCOCCOCCOCCNC(=O)CCCC[C@@H]6SC[C@@H]7NC(=O)N[C@@H]76)cc5)CC4)nc3)CC2)cc1` [Compound 403, 5-(4-(4-methoxybenzoyl)piperidine-1-carbonyl)-N-(1-(4-(14-oxo-18-((3aS,4S,6aR)-2-oxohexahydro-1H-thieno[3,4-d]imidazol-4-yl)-4,7,10-trioxa-13-azaoctadecanamido)benzyl)piperidin-4-yl)picolinamide] it was greater than 10000 nM.
The compound `N#Cc1ccc(CN2CCC(NC(=O)c3ccc(C(=O)N4CCN(c5ccc(S(=O)(=O)C(F)(F)F)cc5)CC4)cn3)CC2)cc1` [Compound 257, N-(1-(4-cyanobenzyl)piperidin-4-yl)-5-(4-(4-(trifluoromethylsulfonyl)phenyl)piperazine-1-carbonyl)picolinamide] showed an EC50 of less than 500 nM.
`N#Cc1ccc(Oc2ccc(NC(=O)c3ccc(C(=O)N4CCC(C(=O)c5ccc(F)cc5F)CC4)nc3)cn2)cc1` [Compound 463, N-(6-(4-cyanophenoxy)pyridin-3-yl)-6-(4-(2,4-difluorobenzoyl)piperidine-1-carbonyl)nicotinamide] gave an EC50 of less than 500 nM.
The same measure for `O=C(NC1CCN(Cc2ccc(F)cc2)CC1)c1ccc(C(=O)N2CCC(C(=O)c3ccc(-n4cccn4)cc3)CC2)nc1` [Compound 392, 6-(4-(4-(1H-pyrazol-1-yl)benzoyl)piperidine-1-carbonyl)-N-(1-(4-fluorobenzyl)piperidin-4-yl)nicotinamide]: less than 500 nM; for `N#Cc1ccc(CN2CCC(NC(=O)c3ccc(C(=O)N4CCC(C(=O)c5ccc(N6CCCC6)cc5)CC4)nc3)CC2)cc1F` [Compound 447, N-(1-(4-cyano-3-fluorobenzyl)piperidin-4-yl)-6-(4-(4-(pyrrolidin-1-yl)benzoyl)piperidine-1-carbonyl)nicotinamide]: less than 500 nM.
In the case of `O=C(NC1CCN(Cc2ccccc2)CC1)c1ccc(C(=O)N2CCN(c3ccccc3)CC2)cn1` [Compound 97, N-(1-benzylpiperidin-4-yl)-5-(4-phenylpiperazine-1-carbonyl)picolinamide] it was 1000 to 5000 nM; in that of `CN(C)C(=O)c1ccc(OC2CCN(C(=O)c3ccc(C(=O)NC4CCN(Cc5ccc(C#N)cc5)CC4)nc3)CC2)cc1` [Compound 357, N-(1-(4-cyanobenzyl)piperidin-4-yl)-5-(4-(4-(dimethylcarbamoyl)phenoxy)piperidine-1-carbonyl)picolinamide], less than 500 nM.
In the case of `COc1ccc(C(=O)C2CCN(C(=O)c3ccc(C(=O)N[C@@H]4CCN(Cc5csc(C)n5)C[C@@H]4F)cn3)CC2)cc1` [Compound 427, N-((3S,4R)-3-fluoro-1-((2-methylthiazol-4-yl)methyl)piperidin-4-yl)-6-(4-(4-methoxybenzoyl)piperidine-1-carbonyl)nicotinamide] it was 1000 to 5000 nM; in that of `CS(=O)(=O)Nc1ccc(CN2CCC(NC(=O)c3ccc(C(=O)N4CCC(Oc5ccc(C#N)cc5)CC4)nc3)CC2)cc1` [Compound 217, 6-(4-(4-cyanophenoxy)piperidine-1-carbonyl)-N-(1-(4-(methylsulfonamido)benzyl)piperidin-4-yl)nicotinamide], greater than 10000 nM; in that of `N#Cc1ccc(CN2CCC(NC(=O)c3ccc(C(=O)N4CCC(Oc5cccnc5)CC4)cn3)CC2)cc1` [Compound 283, N-(1-(4-cyanobenzyl)piperidin-4-yl)-5-(4-(pyridin-3-yloxy)piperidine-1-carbonyl)picolinamide], less than 500 nM.
`O=C(NC1CCN(Cc2ccccc2)CC1)c1ccc(C(=O)NC2CCN(Cc3ccccc3)CC2)nc1` [Compound 264, N2,N5-bis(1-benzylpiperidin-4-yl)pyridine-2,5-dicarboxamide] came in with an EC50 of 5000 to 10000 nM.
In the case of `N#Cc1ccc(CN2CC[C@@H](NC(=O)c3ccc(C(=O)N4CCN(Cc5ccc(F)cc5)CC4)cn3)C2)cc1` [Compound 118, (R)-N-(1-(4-cyanobenzyl)pyrrolidin-3-yl)-5-(4-(4-fluorobenzyl)piperazine-1-carbonyl)picolinamide] it was less than 500 nM; in that of `COc1ccc(CN2CCC(NC(=O)c3ccc(C(=O)N4CCC(Oc5cccc(NC(C)=O)c5)CC4)nc3)CC2)cc1` [Compound 412, 6-(4-(3-acetamidophenoxy)piperidine-1-carbonyl)-N-(1-(4-methoxybenzyl)piperidin-4-yl)nicotinamide], 1000 to 5000 nM.
In the case of `N#Cc1ccc(CN2CCC(NC(=O)c3ccc(C(=O)NC4CCN(c5ccc(C#N)cc5)CC4)cn3)CC2)cc1` [Compound 166, N2-(1-(4-cyanobenzyl)piperidin-4-yl)-N5-(1-(4-cyanophenyl)piperidin-4-yl)pyridine-2,5-dicarboxamide], the EC50 was less than 500 nM.
